Data published in ChEMBL document CHEMBL2396621, “Design, synthesis and biological evaluation of 2-mercapto-3-phenethylquinazoline bearing anilide fragments as potential antitumor agents: molecular docking study” (2013).

What was measured:
Format in all cases: functional
NCI-H522 = test: Cytotoxicity against human NCI-H522 cells assessed as growth inhibition at 10 uM after 48 hrs by coulter counter analysis; conditions: NCI-H522, 48 h, read-out: GI
OVCAR-5 = test: Cytotoxicity against human OVCAR5 cells assessed as growth inhibition at 10 uM after 48 hrs by coulter counter analysis; conditions: OVCAR-5, 48 h, read-out: GI
NCI-H23 = test: Cytotoxicity against human NCI-H23 cells assessed as growth inhibition at 10 uM after 48 hrs by coulter counter analysis; conditions: NCI-H23, 48 h, read-out: GI
IGROV-1 = test: Cytotoxicity against human IGROV1 cells assessed as growth inhibition at 10 uM after 48 hrs by coulter counter analysis; conditions: IGROV-1, 48 h, read-out: GI
DU-145 = test: Cytotoxicity against human DU145 cells assessed as growth inhibition at 10 uM after 48 hrs by coulter counter analysis; conditions: DU-145, 48 h, read-out: GI
CAKI-1 = test: Cytotoxicity against human Caki1 cells assessed as growth inhibition at 10 uM after 48 hrs by coulter counter analysis; conditions: CAKI-1, 48 h, read-out: GI
786-0 = test: Cytotoxicity against human 786-0 cells assessed as growth inhibition at 10 uM after 48 hrs by coulter counter analysis; conditions: 786-0, 48 h, read-out: GI
HT-29 = test: Cytotoxicity against human HT-29 cells assessed as growth inhibition at 10 uM after 48 hrs by coulter counter analysis; conditions: HT-29, 48 h, read-out: GI
NCI-H460 = test: Cytotoxicity against human NCI-H460 cells assessed as growth inhibition at 10 uM after 48 hrs by coulter counter analysis; conditions: NCI-H460, 48 h, read-out: GI
LOX IMVI = test: Cytotoxicity against human LOXIMVI cells assessed as growth inhibition at 10 uM after 48 hrs by coulter counter analysis; conditions: read-out: GI
M14 = test: Cytotoxicity against human M14 cells assessed as growth inhibition at 10 uM after 48 hrs by coulter counter analysis; conditions: M14, 48 h, read-out: GI
ACHN = test: Cytotoxicity against human ACHN cells assessed as growth inhibition at 10 uM after 48 hrs by coulter counter analysis; conditions: read-out: GI
RXF 393 = test: Cytotoxicity against human RXF393 cells assessed as growth inhibition at 10 uM after 48 hrs by coulter counter analysis; conditions: RXF 393, 48 h, read-out: GI
SK-OV-3 = test: Cytotoxicity against human SKOV3 cells assessed as growth inhibition at 10 uM after 48 hrs by coulter counter analysis; conditions: SK-OV-3, 48 h, read-out: GI
UACC-62 = test: Cytotoxicity against human UACC62 cells assessed as growth inhibition at 10 uM after 48 hrs by coulter counter analysis; conditions: UACC-62, 48 h, read-out: GI
NCI-H226 = test: Cytotoxicity against human NCI-H226 cells assessed as growth inhibition at 10 uM after 48 hrs by coulter counter analysis; conditions: NCI-H226, 48 h, read-out: GI
HCC 2998 = test: Cytotoxicity against human HCC2998 cells assessed as growth inhibition at 10 uM after 48 hrs by coulter counter analysis; conditions: HCC 2998, 48 h, read-out: GI
A498 = test: Cytotoxicity against human A498 cells assessed as growth inhibition at 10 uM after 48 hrs by coulter counter analysis; conditions: A498, 48 h, read-out: GI
COLO 205 = test: Cytotoxicity against human COLO205 cells assessed as growth inhibition at 10 uM after 48 hrs by coulter counter analysis; conditions: COLO 205, 48 h, read-out: GI
UO-31 = test: Cytotoxicity against human UO31 cells assessed as growth inhibition at 10 uM after 48 hrs by coulter counter analysis; conditions: UO-31, 48 h, read-out: GI
TK-10 = test: Cytotoxicity against human TK10 cells assessed as growth inhibition at 10 uM after 48 hrs by coulter counter analysis; conditions: TK-10, 48 h, read-out: GI
[1] = Cytotoxicity against human EKVX cells assessed as growth inhibition at 10 uM after 48 hrs by coulter counter analysis; conditions: read-out: GI
[2] = Cytotoxicity against human NCI-ADR-RES cells assessed as growth inhibition at 10 uM after 48 hrs by coulter counter analysis; conditions: read-out: GI
KM12 = test: Cytotoxicity against human KM12 cells assessed as growth inhibition at 10 uM after 48 hrs by coulter counter analysis; conditions: KM12, 48 h, read-out: GI
OVCAR-4 = test: Cytotoxicity against human OVCAR4 cells assessed as growth inhibition at 10 uM after 48 hrs by coulter counter analysis; conditions: OVCAR-4, 48 h, read-out: GI
MDA-MB-435 = test: Cytotoxicity against human MDA-MB-435 cells assessed as growth inhibition at 10 uM after 48 hrs by coulter counter analysis; conditions: MDA-MB-435, 48 h, read-out: GI
Hs-578T = test: Cytotoxicity against human Hs578T cells assessed as growth inhibition at 10 uM after 48 hrs by coulter counter analysis; conditions: read-out: GI
UACC-257 = test: Cytotoxicity against human UACC257 cells assessed as growth inhibition at 10 uM after 48 hrs by coulter counter analysis; conditions: UACC-257, 48 h, read-out: GI
SW-620 = test: Cytotoxicity against human SW620 cells assessed as growth inhibition at 10 uM after 48 hrs by coulter counter analysis; conditions: SW-620, 48 h, read-out: GI
MDA-MB-231 = test: Cytotoxicity against human MDA-MB-231 cells assessed as growth inhibition at 10 uM after 48 hrs by coulter counter analysis; conditions: MDA-MB-231, 48 h, read-out: GI
Malme-3M = test: Cytotoxicity against human MALME-3M cells assessed as growth inhibition at 10 uM after 48 hrs by coulter counter analysis; conditions: read-out: GI
U-251 = test: Cytotoxicity against human U251 cells assessed as growth inhibition at 10 uM after 48 hrs by coulter counter analysis; conditions: U-251, 48 h, read-out: GI
HCT-15 = test: Cytotoxicity against human HCT15 cells assessed as growth inhibition at 10 uM after 48 hrs by coulter counter analysis; conditions: HCT-15, 48 h, read-out: GI
HOP-62 = test: Cytotoxicity against human HOP62 cells assessed as growth inhibition at 10 uM after 48 hrs by coulter counter analysis; conditions: HOP-62, 48 h, read-out: GI
SF-539 = test: Cytotoxicity against human SF539 cells assessed as growth inhibition at 10 uM after 48 hrs by coulter counter analysis; conditions: SF-539, 48 h, read-out: GI
SF-295 = test: Cytotoxicity against human SF295 cells assessed as growth inhibition at 10 uM after 48 hrs by coulter counter analysis; conditions: SF-295, 48 h, read-out: GI
PC-3 = test: Cytotoxicity against human PC3 cells assessed as growth inhibition at 10 uM after 48 hrs by coulter counter analysis; conditions: PC-3, 48 h, read-out: GI

Row | Compound | inhibition of growth at 10 µM (NCI-H522) [%] | inhibition of growth at 10 µM (OVCAR-5) [%] | inhibition of growth at 10 µM (NCI-H23) [%] | inhibition of growth at 10 µM (IGROV-1) [%] | inhibition of growth at 10 µM (DU-145) [%] | inhibition of growth at 10 µM (CAKI-1) [%] | inhibition of growth at 10 µM (786-0) [%] | inhibition of growth at 10 µM (HT-29) [%] | inhibition of growth at 10 µM (NCI-H460) [%] | inhibition of growth at 10 µM (LOX IMVI) [%] | inhibition of growth at 10 µM (M14) [%] | inhibition of growth at 10 µM (ACHN) [%] | inhibition of growth at 10 µM (RXF 393) [%] | inhibition of growth at 10 µM (SK-OV-3) [%] | inhibition of growth at 10 µM (UACC-62) [%] | inhibition of growth at 10 µM (NCI-H226) [%] | inhibition of growth at 10 µM (HCC 2998) [%] | inhibition of growth at 10 µM (A498) [%] | inhibition of growth at 10 µM (COLO 205) [%] | inhibition of growth at 10 µM (UO-31) [%] | other results
1 | O=C(CSc1nc2ccccc2c(=O)n1CCc1ccccc1)NCc1ccccc1 | 28 | < 10 | 10 | 39 | 13 | 32 | 15 | < 10 | 29 | 17 | 14 | 38 | 16 | 14 | 29 | 13 | < 10 | < 10 | < 10 | 33 | inhibition of growth at 10 µM (TK-10): 20%; inhibition of growth at 10 µM [1]: 25%; inhibition of growth at 10 µM [2]: 19%; inhibition of growth at 10 µM (KM12): < 10%; inhibition of growth at 10 µM (OVCAR-4): 13%; inhibition of growth at 10 µM (MDA-MB-435): 19%; inhibition of growth at 10 µM (Hs-578T): 37%; inhibition of growth at 10 µM (UACC-257): < 10%; inhibition of growth at 10 µM (SW-620): < 10%; inhibition of growth at 10 µM (MDA-MB-231): 37%; inhibition of growth at 10 µM (Malme-3M): 14%; inhibition of growth at 10 µM (U-251): 24%; inhibition of growth at 10 µM (HCT-15): 20%; inhibition of growth at 10 µM (HOP-62): 36%; inhibition of growth at 10 µM (SF-539): 38%; inhibition of growth at 10 µM (SF-295): 27%; inhibition of growth at 10 µM (PC-3): 29%
2 | COc1ccc(NC(=O)CSc2nc3ccccc3c(=O)n2CCc2ccccc2)cc1 | < 10 | < 10 | < 10 | 18 | < 10 | 13 | < 10 | < 10 | 25 | < 10 | 25 | < 10 | 21 | 25 | 13 | < 10 | < 10 | < 10 | < 10 | < 10 | inhibition of growth at 10 µM (TK-10): 10%; inhibition of growth at 10 µM [1]: 25%; inhibition of growth at 10 µM [2]: 15%; inhibition of growth at 10 µM (KM12): 16%; inhibition of growth at 10 µM (OVCAR-4): < 10%; inhibition of growth at 10 µM (MDA-MB-435): 10%; inhibition of growth at 10 µM (Hs-578T): 49%; inhibition of growth at 10 µM (UACC-257): 14%; inhibition of growth at 10 µM (SW-620): 11%; inhibition of growth at 10 µM (MDA-MB-231): 39%; inhibition of growth at 10 µM (Malme-3M): 40%; inhibition of growth at 10 µM (U-251): 29%; inhibition of growth at 10 µM (HCT-15): < 10%; inhibition of growth at 10 µM (HOP-62): 52%; inhibition of growth at 10 µM (SF-539): 10%; inhibition of growth at 10 µM (SF-295): 21%; inhibition of growth at 10 µM (PC-3): < 10%
3 | Cc1ccc(NC(=O)CSc2nc3ccccc3c(=O)n2CCc2ccccc2)cc1 | 22 | < 10 | < 10 | 20 | < 10 | 13 | < 10 | < 10 | 22 | 14 | < 10 | 21 | 10 | 20 | 20 | < 10 | < 10 | < 10 | 15 | < 10 | inhibition of growth at 10 µM (TK-10): < 10%; inhibition of growth at 10 µM [1]: 29%; inhibition of growth at 10 µM [2]: < 10%; inhibition of growth at 10 µM (KM12): 11%; inhibition of growth at 10 µM (OVCAR-4): < 10%; inhibition of growth at 10 µM (MDA-MB-435): 17%; inhibition of growth at 10 µM (Hs-578T): 41%; inhibition of growth at 10 µM (UACC-257): 17%; inhibition of growth at 10 µM (SW-620): 10%; inhibition of growth at 10 µM (MDA-MB-231): 23%; inhibition of growth at 10 µM (Malme-3M): 17%; inhibition of growth at 10 µM (U-251): 11%; inhibition of growth at 10 µM (HCT-15): 10%; inhibition of growth at 10 µM (HOP-62): 42%; inhibition of growth at 10 µM (SF-539): 19%; inhibition of growth at 10 µM (SF-295): 12%; inhibition of growth at 10 µM (PC-3): 14%
